Read-outs that look alike come from different tables or passages of the source.
Biological target: human SSTR2 (Homo sapiens (Human), UniProt P30874)
Assay: Human SSTR2 intracellular cAMP functional assay for agonists (HTRF)
Type: cell-based
Method: Functional Assay for SSTR2 Agonists
General overview: All five SSTR subtypes are Gi coupled G-protein coupled receptors (GPCRs) that lead to decreases in intracellular cyclic AMP (cAMP) when activated by an agonist. […] Human SSTR2 intracellular cAMP assay is described below. The human SSTR1, 3, 4 and 5 assays follow the same protocol of SSTR2.
The cells are cultured at 37° C., 5% CO2 and 95% humidity. […] The cells are incubated for 20 minutes at 37° C. […] The cells are treated with 50 μL of lysis buffer (HRTF cAMP kit, Cisbio). […] The time-resolved fluorescent signal is read with a Tecan M1000Pro multiplate reader. The intracellular cAMP concentrations are calculated by regression to a standard curve and are plotted vs. the concentration of the compounds of the invention and the EC50 of the compounds are calculated using standard methods. All data manipulations are in GraphPad Prism v6.

[1] = CHO-K1 cells stably expressing human SSTR2, NKH477-stimulated cAMP, read-out: EC50 (inhibition of cAMP activities via human SST2R)

Chain of human SSTR2 (P30874 whole entry): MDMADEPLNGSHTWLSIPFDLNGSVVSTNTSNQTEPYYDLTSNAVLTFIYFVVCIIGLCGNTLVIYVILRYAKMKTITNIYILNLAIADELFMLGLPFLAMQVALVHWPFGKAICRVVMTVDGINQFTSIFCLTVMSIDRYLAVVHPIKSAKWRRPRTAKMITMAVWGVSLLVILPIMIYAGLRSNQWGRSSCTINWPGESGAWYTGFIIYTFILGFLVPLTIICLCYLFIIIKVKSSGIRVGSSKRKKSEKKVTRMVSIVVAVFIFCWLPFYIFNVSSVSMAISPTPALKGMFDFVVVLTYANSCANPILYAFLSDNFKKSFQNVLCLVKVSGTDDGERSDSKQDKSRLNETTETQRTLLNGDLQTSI

Row | SMILES | EC50 [1] | EC50
1 | Cc1cc(F)cc(-c2nnc3ccc(-c4cc(F)cc(C(N)=O)c4)cc3c2N2CCC(N)CC2)c1 [1-13, 3-[4-(4-aminopiperidin-1-yl)-3-(3-fluoro-5-methylphenyl)cinnolin-6-yl]-5-fluorobenzamide] | < 10 nM | –
2 | NC(=O)c1cc(F)cc(-c2ccc3nnc(-c4cc(F)cc(F)c4)c(N4CCC(N)CC4)c3c2)c1 [1-14, 3-[4-(4-aminopiperidin-1-yl)-3-(3,5-difluorophenyl)cinnolin-6-yl]-5-fluorobenzamide] | < 10 nM | –
3 | Cc1cc(F)cc(-c2ccc3nnc(-c4cc(F)cc(C(N)=O)c4)c(N4CCC(N)CC4)c3c2)c1 [1-15, 3-[4-(4-aminopiperidin-1-yl)-6-(3-fluoro-5-methylphenyl)cinnolin-3-yl]-5-fluorobenzamide] | – | 10 to 100 nM
4 | Cc1cc(F)cc(-c2nnc3ccc(-c4ccc5[nH]c(=O)[nH]c5c4)cc3c2N2CCC(N)CC2)c1 [1-16, 5-[4-(4-aminopiperidin-1-yl)-3-(3-fluoro-5-methylphenyl)cinnolin-6-yl]-2,3-dihydro-1H-1,3-benzodiazol-2-one] | < 10 nM | –
5 | Cc1cc(F)cc(-c2nnc3ccc(-c4cccc(C#N)c4O)cc3c2N2CCC(N)CC2)c1 [1-17, 3-[4-(4-aminopiperidin-1-yl)-3-(3-fluoro-5-methylphenyl)cinnolin-6-yl]-2-hydroxybenzonitrile] | < 10 nM | –
6 | Cc1cc(Cl)cc(-c2nnc3ccc(-c4cccc(C#N)c4O)cc3c2N2CCC(N)CC2)c1 [1-18, 3-[4-(4-aminopiperidin-1-yl)-3-(3-chloro-5-methylphenyl)cinnolin-6-yl]-2-hydroxybenzonitrile] | < 10 nM | –
7 | N#Cc1cccc(-c2ccc3nnc(-c4cc(F)cc(Cl)c4)c(N4CCC(N)CC4)c3c2)c1O [1-19, 3-[4-(4-aminopiperidin-1-yl)-3-(3-chloro-5-fluorophenyl)cinnolin-6-yl]-2-hydroxybenzonitrile] | < 10 nM | –
8 | N#Cc1cccc(-c2ccc3nnc(-c4cc(F)cc(F)c4)c(N4CCC(N)CC4)c3c2)c1O [1-20, 3-[4-(4-aminopiperidin-1-yl)-3-(3,5-difluorophenyl)cinnolin-6-yl]-2-hydroxybenzonitrile] | – | 10 to 100 nM
9 | N#Cc1cccc(-c2ccc3nnc(-c4cc(Cl)cc(Cl)c4)c(N4CCC(N)CC4)c3c2)c1O [1-21, 3-[4-(4-aminopiperidin-1-yl)-3-(3,5-dichlorophenyl)cinnolin-6-yl]-2-hydroxybenzonitrile] | < 10 nM | –
10 | Cc1cc(Cl)cc(-c2nnc3ccc(-c4cc(F)cc(C#N)c4O)cc3c2N2CCC(N)CC2)c1 [1-22, 3-[4-(4-aminopiperidin-1-yl)-3-(3-chloro-5-methylphenyl)cinnolin-6-yl]-5-fluoro-2-hydroxybenzonitrile] | < 10 nM | –
11 | Cc1cc(Cl)cc(-c2nnc3ccc(-c4cc(F)c5[nH]c(=O)[nH]c5c4)cc3c2N2CCC(N)CC2)c1 [1-23, 6-[4-(4-aminopiperidin-1-yl)-3-(3-chloro-5-methylphenyl)cinnolin-6-yl]-4-fluoro-2,3-dihydro-1H-1,3-benzodiazol-2-one] | < 10 nM | –
12 | Cc1cc(Cl)cc(-c2nnc3ccc(-c4cc(F)cc5[nH]c(=O)[nH]c45)cc3c2N2CCC(N)CC2)c1 [1-24, 4-[4-(4-aminopiperidin-1-yl)-3-(3-chloro-5-methylphenyl)cinnolin-6-yl]-6-fluoro-2,3-dihydro-1H-1,3-benzodiazol-2-one] | < 10 nM | –
13 | Cc1cc(F)cc(-c2nnc3cc(Cl)c(-c4cc(F)cc(C(N)=O)c4)cc3c2N2CCC(NCCF)CC2)c1 [1-25, 3-[7-chloro-3-(3-fluoro-5-methylphenyl)-4-{4-[(2-fluoroethyl)amino]piperidin-1-yl}cinnolin-6-yl]-5-fluorobenzamide] | < 10 nM | –
14 | NC1CCN(c2c(-c3cc(Cl)cc(Cl)c3)nnc3ccc(-c4cc(F)c5[nH]c(=O)[nH]c5c4)cc23)CC1 [1-28, 6-[4-(4-aminopiperidin-1-yl)-3-(3,5-dichlorophenyl)cinnolin-6-yl]-4-fluoro-2,3-dihydro-1H-1,3-benzodiazol-2-one] | < 10 nM | –
15 | Cc1cc(Cl)cc(-c2nnc3ccc(-c4cccc(F)c4O)cc3c2N2CCC(N)CC2)c1 [1-29, 2-[4-(4-aminopiperidin-1-yl)-3-(3-chloro-5-methylphenyl)cinnolin-6-yl]-6-fluorophenol] | < 10 nM | –
16 | NC(=O)c1cc(F)cc(-c2ccc3nnc(-c4cc(Cl)cc(Cl)c4)c(N4CCC(N)CC4)c3c2)c1 [1-30, 3-[4-(4-aminopiperidin-1-yl)-3-(3,5-dichlorophenyl)cinnolin-6-yl]-5-fluorobenzamide] | < 10 nM | –
17 | NC(=O)c1cc(F)cc(-c2ccc3nnc(-c4cc(Cl)cc(Cl)c4)c(N4CCC(NC5COC5)CC4)c3c2)c1 [1-31, 3-[3-(3,5-dichlorophenyl)-4-{4-[(oxetan-3-yl)amino]piperidin-1-yl}cinnolin-6-yl]-5-fluorobenzamide] | < 10 nM | –

Row | SMILES | EC50 [1] | EC50
18 | NC(=O)c1cc(F)cc(-c2ccc3nnc(-c4cc(Cl)cc(Cl)c4)c(N4CCC(NCCC(F)(F)F)CC4)c3c2)c1 [1-32, 3-[3-(3,5-dichlorophenyl)-4-{4-[(3,3,3-trifluoropropyl)amino]piperidin-1-yl}cinnolin-6-yl]-5-fluorobenzamide] | < 10 nM | –
19 | NC(=O)c1cc(F)cc(-c2ccc3nnc(-c4cc(Cl)cc(Cl)c4)c(N4CCC(NCCF)CC4)c3c2)c1 [1-33, 3-[3-(3,5-dichlorophenyl)-4-{4-[(2-fluoroethyl)amino]piperidin-1-yl}cinnolin-6-yl]-5-fluorobenzamide] | < 10 nM | –
20 | NCC1CN(c2c(-c3cc(Cl)cc(Cl)c3)nnc3ccc(-c4cc(F)cc(C(N)=O)c4)cc23)C1 [1-34, 3-{4-[3-(aminomethyl)azetidin-1-yl]-3-(3,5-dichlorophenyl)cinnolin-6-yl}-5-fluorobenzamide] | < 10 nM | –
21 | Cc1cc(F)cc(-c2cnc3ccc(-c4cccc(C#N)c4O)cc3c2N2CCC(N)CC2)c1 [2-1, 3-[4-(4-aminopiperidin-1-yl)-3-(3-fluoro-5-methylphenyl)quinolin-6-yl]-2-hydroxybenzonitrile] | < 10 nM | –
22 | N#Cc1cccc(-c2ccc3ncc(-c4cc(F)cc(F)c4)c(N4CCC(N)CC4)c3c2)c1O [2-2, 3-[4-(4-amino-piperidin-1-yl)-3-(3,5-difluoro-phenyl)-quinolin-6-yl]-2-hydroxy-benzonitrile] | < 10 nM | –
23 | N#Cc1cccc(-c2ccc3ncc(-c4cc(F)cc(F)c4)c(N4CCC(N)CC4)c3c2)c1 [2-5, 3-[4-(4-aminopiperidin-1-yl)-3-(3,5-difluorophenyl)quinolin-6-yl]benzonitrile] | < 10 nM | –
24 | NC1CCN(c2c(-c3cc(F)cc(F)c3)cnc3ccc(-c4ccccc4O)cc23)CC1 [2-6, 2-[4-(4-aminopiperidin-1-yl)-3-(3,5-difluorophenyl)quinolin-6-yl]phenol] | < 10 nM | –
25 | Cc1cc(F)cc(-c2cnc3ccc(-c4cccc(C(N)=O)n4)cc3c2N2CCC(N)CC2)c1 [2-7, 6-[4-(4-aminopiperidin-1-yl)-3-(3-fluoro-5-methylphenyl)quinolin-6-yl]pyridine-2-carboxamide] | < 10 nM | –
26 | Cc1cc(F)cc(-c2cnc3ccc(-c4cccc5[nH]c(=O)[nH]c45)cc3c2N2CCC(N)CC2)c1 [2-8, 4-[4-(4-aminopiperidin-1-yl)-3-(3-fluoro-5-methylphenyl)quinolin-6-yl]-2,3-dihydro-1H-1,3-benzodiazol-2-one] | < 10 nM | –
27 | Cc1cc(F)cc(-c2cnc3ccc(-c4ccc5[nH]c(=O)[nH]c5c4)cc3c2N2CCC(N)CC2)c1 [2-9, 5-[4-(4-aminopiperidin-1-yl)-3-(3-fluoro-5-methylphenyl)quinolin-6-yl]-2,3-dihydro-1H-1,3-benzodiazol-2-one] | < 10 nM | –
28 | N#Cc1cc(F)cc(-c2ccc3ncc(-c4cc(F)cc(F)c4)c(N4CCC(N)CC4)c3c2)c1O [2-10, 3-[4-(4-aminopiperidin-1-yl)-3-(3,5-difluorophenyl)quinolin-6-yl]-5-fluoro-2-hydroxybenzonitrile] | < 10 nM | –
29 | NC1CCN(c2c(-c3cc(Cl)cc(Cl)c3)cnc3ccccc23)CC1 [2-11, 1-[3-(3,5-dichlorophenyl)quinolin-4-yl]piperidin-4-amine] | – | 10 to 100 nM
30 | Cc1cc(F)cc(-c2cnc3ccc(-c4cccc(C#N)c4O)cc3c2N2CC(CN)C2)c1 [2-12, 3-{4-[3-(aminomethyl)azetidin-1-yl]-3-(3-fluoro-5-methylphenyl)quinolin-6-yl}-2-hydroxybenzonitrile] | – | 10 to 100 nM
31 | Cc1cc(Cl)cc(-c2cnc3ccc(-c4cccc(C#N)c4O)cc3c2N2CC(CN)C2)c1 [2-13, 3-{4-[3-(aminomethyl)azetidin-1-yl]-3-(3-chloro-5-methylphenyl)quinolin-6-yl}-2-hydroxybenzonitrile] | – | 10 to 100 nM
32 | Cc1cc(F)cc(-c2cnc3ccc(-c4cc(F)cc(C(N)=O)c4)cc3c2N2CC(C)(CN)C2)c1 [2-14, 3-{4-[3-(aminomethyl)-3-methylazetidin-1-yl]-3-(3-fluoro-5-methylphenyl)quinolin-6-yl}-5-fluorobenzamide] | – | 10 to 100 nM
33 | Cc1cc(Cl)cc(-c2cnc3ccc(-c4cc(F)cc(C#N)c4O)cc3c2N2CC(C)(CN)C2)c1 [2-15, 3-{4-[3-(aminomethyl)-3-methylazetidin-1-yl]-3-(3-chloro-5-methylphenyl)quinolin-6-yl}-5-fluoro-2-hydroxybenzonitrile] | 100 to 1000 nM | –
34 | Cc1cc(F)cc(-c2cnc3ccc(-c4cc(F)cc(C#N)c4O)cc3c2N2CCC(N)CC2)c1 [2-16, 3-[4-(4-aminopiperidin-1-yl)-3-(3-fluoro-5-methylphenyl)quinolin-6-yl]-5-fluoro-2-hydroxybenzonitrile] | < 10 nM | –

Reference: patent publication US10351547B2, “Somatostatin modulators and uses thereof” (priority 2016, dated 2019)
